The subject of this assay is wildtype Wnt signaling cascade. As to the kind of experiment: HEK293 TOP assay (Super TopFlash luciferase reporter, Wnt-3a stimulated). The class given is cell-based. The settings on record: Homo sapiens, HEK293 TOP reporter cells, Wnt3a at EC50, 16 hours. The procedure, abridged: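 Compound series (50 μM down to 15 nM, 3.16-fold) diluted from DMSO 50-fold into CAFTY buffer, pH 7.4, 2 mM Ca^2+, 0.01% BSA, applied to Wnt-3a-stimulated HEK293 TopFlash and FOP reporter lines in parallel. Cells seeded 10000/well 24 h before; luciferase signal measured.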
Background: Reporter assays use an easily measured gene product as a stand-in for the process of interest.

Where a name gives a salt, the structure may show the parent alone.

For `Cc1c(C(C)N(C)C)cnc2c(C(=O)N[C@H]3CC[C@H](C(=O)Nc4ccc(F)cc4Cl)CC3)cnn12` (mixture of isomers) [Example 55, N-{trans-4-[(2-chloro-4-fluorophenyl)carbamoyl]cyclohexyl}-6-[1-(dimethylamino)ethyl]-7-methylpyrazolo[1,5-a]pyrimidine-3-carboxamide formic acid salt], the IC50 (commonly the concentration that inhibits the measured activity by half) was 280 nM.

With `O=C(NCCN1CCCCC1)c1nc[nH]c1C(=O)N[C@H]1CC[C@H](C(=O)Nc2ccc(F)cc2Cl)CC1` [Example 2, N^5-{trans-4-[(2-chloro-4-fluorophenyl)carbamoyl]cyclohexyl}-N^4-[2-(piperidin-1-yl)ethyl]-1H-imidazole-4,5-dicarboxamide], inhibition (HEK293, 16 h) was half-maximal at 25 nM (IC50).

In turn, `CNC(C)c1cnc2c(C(=O)N[C@H]3CC[C@H](C(=O)Nc4ccc(F)cc4Cl)CC3)cnn2c1C` (stereo partly drawn) [Example 54, N-{trans-4-[(2-chloro-4-fluorophenyl)carbamoyl]cyclohexyl}-7-methyl-6-[1-(methylamino)ethyl]pyrazolo[1,5-a]pyrimidine-3-carboxamide formic acid salt] came in with an IC50 of 620 nM.

For `COCC(C)NC(=O)c1nc[nH]c1C(=O)N[C@H]1CC[C@H](C(=O)Nc2cc(N3CCOCC3)ccc2Cl)CC1` (stereo partly drawn) [Example 91, N^5-(trans-4-{[2-chloro-5-(morpholin-4-yl)phenyl]carbamoyl}cyclohexyl)-N^4-(1-methoxypropan-2-yl)-1H-imidazole-4,5-dicarboxamide], under “HEK293, 16 h”, the midpoint of inhibition, the IC50, lay at 1800 nM.

Values taken from patent US20180148418A1, “AMIDO-SUBSTITUTED CYCLOHEXANE DERIVATIVES” (Bayer Pharma Aktiengesellschaft, priority 2015, published 2018).
